Assay results as given in patent publication US4232035A, “Carbamate pesticidal compounds compositions and methods of use” (priority 1975, dated 1980).

Tests used:
Format in all cases: in vivo
[1] = tested on: root-knot nematode (Meloidogyne incognita var. acrita); test: Nematode Test; set-up: key: 1: severe galling; equal to untreated control; 2: moderate galling; 3: light galling; 4: very light galling; 5: no galling; conditions: 10 ml of 500 parts per million formulation per jar of soil; cucumber indicator crop, approximately three weeks
Experimental: (§1) Suspensions of the test compounds were prepared by dissolving one gram of compound in 50 milliliters of acetone in which had been dissolved 0.1 gram (10 percent of the weight of compound) of an alkylphenoxy polyethoxyethanol surfactant, as an emulsifying or dispersing agent. The resulting solution was mixed into 150 milliliters of water to give roughly 200 milliliters of a suspension containing the compound in finely divided form. The thus-prepared stock suspension contained 0.5 percent by weight of compound. The test concentrations in parts per million by weight employed in the tests described hereinbelow were obtained by appropriate dilutions of the stock suspension with water. The test procedures were as follows:
Infective migratory larvae of the root-knot nematode, (Meloidogyne incognita var. acrita) were reared in the greenhouse on roots of Rutgers variety tomato plant. Infected tomato plants were removed from the culture and the roots were chopped very finely. A small amount of inoculum from the roots was added to pint Mason jars containing approximately 180 cc of soil. The jars containing the inoculum and soil were capped and incubated for one week at room temperature. During this period eggs of the nematode hatched and the larvae forms migrated into the soil.
The test compounds were formulated by diluting the stock suspension with water to give a suspension containing 500 parts of test compound per million parts of final formulation. 10 milliliters of the test formulation was added to each of two jars for each dosage treated. As a control 10 milliliters of a water-acetone-emulsifier solution containing no test compound was also added to jars containing nematode larvae. The jars were capped and the contents thoroughly mixed on a kale mill for five minutes. The jars remained capped at room temperature for a period of 48 hours and the contents were then transferred to 3 inch pots. Subsequently, the pots were seeded to cucumber as an indicator crop and placed in the green house where they were cared for in the normal fashion for growing potted cucumber for approximately three weeks. These cucumber plants were then removed from the pots, the soil washed from the roots and the amount of galling visually rated.

[2] = tested on: two-spotted mite (Tetranychus urticae Koch); test: Mite Foliage Spray Test; set-up: key: A: excellent control; B: partial control; C: no control; conditions: 500 parts per million foliage spray; six days
Experimental: as §1
Adults and nymphal stages of the two-spotted mite (Tetranychus urticae Koch), reared on Tendergreen bean plants at 80±5 percent relative humidity, were the test organisms. Infested leaves from a stock culture were placed on the primary leaves of two bean plants six to eight inches in height, growing in a two-and-a-half inch clay pot. 150-200 Mites, a sufficient number for testing, transferred from the excised leaves to the fresh plants in a period of twenty four hours. Following the twenty four hour transfer period, the excised leaves were removed from the infested plants. The test compounds were formulated by diluting the stock suspension with water to give a suspension containing 500 parts of test compound per million parts of final formulation. The potted plants (one pot per compound) were placed on a revolving turntable and sprayed with 100-110 milliliters of test compound formulation by use of a DeVilbiss spray gun set at 40 psig. air pressure. This application, which lasted 25 seconds, was sufficient to wet the plants to run-off. As a control, 100-110 milliliters of a water solution containing acetone and emulsifier in the same concentrations as the test compound formulation, but containing no test compound, were also sprayed on infested plants. The sprayed plants were held at 80±5 percent relative humidity for six days, after which a mortality count of motile forms was made. Microscopic examination for motile forms was made on the leaves of the test plants. Any individual which was capable of locomotion upon prodding was considered living.

[3] = tested on: bean aphid (Aphis fabae Scop.); test: Bean Aphid Foliage Spray Test; set-up: key: A: excellent control; B: partial control; C: no control; conditions: 500 parts per million foliage spray; 24 hour holding period
Experimental: as §1
Adults and nymphal stages of the bean aphid (Aphis fabae Scop.) reared on potted dwarf nasturtium plants at 65°-70° F. and 50-70 percent relative humidity, constituted the test insects. For testing purposes, the number of aphids per pot was standardized to 100-150 by trimming plants containing excess aphids.
The test compounds were formulated by diluting the stock suspension with water to give a suspension containing 500 parts of test compound per million parts of final formulation.
The potted plants (one pot per compound tested) infested with 100-150 aphids, were placed on a revolving turntable and sprayed with 100-110 milliliters of test compound formulation by use of a DeVilbiss spray gun set at 40 psig. air pressure. This application, which lasted 25 seconds, was sufficient to wet the plants to run-off. As a control, 100-110 milliliters of a water-acetone-emulsifier solution containing no test compound were also sprayed on infested plants. After spraying, the pots were placed on their sides on a sheet of white standard mimeograph paper which had been previously ruled to facilitate counting. Temperature and humidity in the test room during the 24 hour holding period were 65°-70° F. and 50-70 percent, respectively. Aphids which fell onto the paper and were unable to remain standing after being uprighted were considered dead. Aphids remaining on the plants were observed closely for movement and those which were unable to move the length of the body upon stimulation by prodding were considered dead. Percent mortality was recorded for various concentration levels.

[4] = tested on: southern armyworm (Prodenia eridania, (Cram.)); test: Southern Armyworm Leaf Spray Test; set-up: key: A: excellent control; B: partial control; C: no control; conditions: 500 parts per million leaf spray; three days
Experimental: as §1
Larvae of the southern armyworm (Prodenia eridania, (Cram.)), reared on Tendergreen bean plants at a temperature of 80°±5° F. and a relative humidity of 50±5 percent, constituted the test insects.
The test compounds were formulated by diluting the stock suspension with water to give a suspension containing 500 parts of test compound per million parts of final formulation. Potted Tendergreen bean plants of standard height and age were placed on a revolving turntable and sprayed with 100-110 milliliters of test compound formulation by use of a DeVilbiss spray gun set at 10 psig air pressure. This application, which lasted 25 seconds, was sufficient to wet plants to run-off. As a control, 100-110 milliliters of a water-acetone-emulsifier solution containing no test compound were also sprayed on infested plants. When dry, the paired leaves were separated and each one was placed in a 9 centimeter Petri dish lined with moistened filter paper. Five randomly selected larvae were introduced into each dish and the dishes were closed. The closed dishes were labeled and held at 80°-85° F. for three days. Although the larvae could easily consume the whole leaf within twenty-four hours, no more food was added. Larvae which were unable to move the length of the body, even upon stimulation by prodding, were considered dead. Percent mortality was recorded for various concentration levels.

[5] = tested on: house flies (Musca domestica, L.); test: Fly Bait Test; set-up: key: A: excellent control; B: partial control; C: no control; conditions: 500 parts per million bait in sugar solution; twenty four hours
Experimental: as §1
Four to six day old adult house flies (Musca domestica, L.) reared according to the specifications of the Chemical Specialties Manufacturing Association (Blue Book, McNair-Dorland Co., N.Y. 1954; pages 243-244, 261) under controlled conditions of 80°±5° F. and 50±5 percent relative humidity, were the test insects. The flies were immobilized by anesthetizing with carbon dioxide and twenty five immobilized individuals, males and females, were transferred to a cage consisting of a standard food strainer about five inches in diameter which was inverted over a wrapping-paper-covered surface. The test compounds were formulated by diluting the stock suspension with a 10 percent (by weight) sugar solution to give a suspension containing 500 parts of test compound per million parts of final formulation, by weight. Ten milliliters of the test formulation were added to a souffle cup containing a one-inch square of an absorbent cotton pad. This bait cup was introduced and centered on the blotting paper under the food strainer prior to admitting the anesthetized flies. The caged flies were allowed to feed on the bait for twenty four hours, at a temperature of 80°±5° F. and the relative humidity of 50±5 percent.

[6] = tested on: Mexican bean beetle (Epilachna varivestis, Muls.); test: Mexican Bean Beetle Leaf Spray Test; set-up: key: A: excellent control; B: partial control; C: no control; conditions: 500 parts per million leaf spray; fourth instar larvae; three days
Experimental: as §1
Fourth instar larvae of the Mexican bean beetle (Epilachna varivestis, Muls.), reared on Tendergreen bean plants at a temperature of 80°±5° F. and 50±5 percent relative humidity, were the test insects.
The test compounds were formulated by diluting the stock suspension with water to give a suspension containing 500 parts of test compound per million parts of final formulation. Potted Tendergreen bean plants of standard height and age were placed on a revolving turntable and sprayed with 100-110 milliliters of test compound formulation by use of a DeVilbiss spray gun set at 10 psig air pressure. This application, which lasted 25 seconds, was sufficient to wet plants to run-off. As a control, 100-110 milliliters of a water-acetone-emulsifier solution containing no test compound were also sprayed on infested plants. When dry, the paired leaves were separated and each was placed in a 9 centimeter Petri dish lined with moistened filter paper. Five randomly selected larvae were introduced into each dish, and the dishes were closed. The closed dishes were labeled and held at a temperature of 80°±5° F. for three days. Although the larvae could easily consume the leaf within 24 to 48 hours, no more food was added. Larvae which were unable to move the length of the body, even upon stimulation, were considered dead.

Row | Structure (SMILES) | Nematodes, nematocidal toxicity rating (galling) [1] | Mite, pesticidal activity rating [2] | Aphid, pesticidal activity rating [3] | S. Armyworm, pesticidal activity rating [4] | H. Fly, pesticidal activity rating [5] | M. Bean Beetle, pesticidal activity rating [6]
1 | CN(SSC(C)(C)C)C(=O)ON=C1CSCCS1 | 1 | A | A | A | A | A
2 | CCCCCCCCSSN(C)C(=O)ON=C1SCOC1C (stereo not drawn) | 1 | A | A | A | A | A
3 | CSSN(C)C(=O)ON=C1SCOC1C (stereo not drawn) | 1 | A | A | A | A | A
4 | CC1OCSC1=NOC(=O)N(C)SSC(C)(C)C (stereo not drawn) | 1 | A | A | A | A | A
5 | CC(C)SSN(C)C(=O)ON=C1SCOC1C (stereo not drawn) | 1 | A | A | A | A | A
6 | CC1OCSC1=NOC(=O)N(C)SSc1ccccc1 (stereo not drawn) | 2 | A | A | A | A | A
7 | Cc1ccc(SSN(C)C(=O)ON=C2SCOC2C)cc1 (stereo not drawn) | 1 | A | A | A | A | A
8 | CC1OCSC1=NOC(=O)N(C)SSc1ccc(Cl)cc1 (stereo not drawn) | 1 | A | A | A | A | A
9 | CC(C)SSN(C)C(=O)ON=C1SC(C)(C)C(=O)N1C | 1 | C | A | A | A | A
10 | CCCCSSN(C)C(=O)ON=C1SC(C)(C)C(=O)N1C | 5 | A | A | A | A | A
11 | CN(SSC1CCCCC1)C(=O)ON=C1SC(C)(C)C(=O)N1C | 2 | C | A | A | C | A
12 | CN(SSc1ccccc1)C(=O)ON=C1SC(C)(C)C(=O)N1C | 1 | C | A | A | B | A
13 | Cc1ccc(SSN(C)C(=O)ON=C2SC(C)(C)C(=O)N2C)cc1 | 1 | C | C | A | C | A
14 | CN(SSc1ccc(C(C)(C)C)cc1)C(=O)ON=C1SC(C)(C)C(=O)N1C | 1 | C | C | A | C | A
15 | CN(SSc1ccc(Cl)cc1)C(=O)ON=C1SC(C)(C)C(=O)N1C | 1 | C | A | A | B | A
